Test results reported in PMC12527173, “Cytotoxic, anti-inflammatory, antioxidant, and anti-glyoxalase-I evaluation of chelating substances: In silico and in vitro study” (PLOS One, 2025).
Like-named read-outs stand apart in the source and are kept apart here. Each block holds one molecule with its values, some of them ahead of it.

Columns and labels:
[1] = SRB cytotoxicity assay, normal PDL fibroblasts; type: cell-based; conditions: normal periodontal ligament (PDL) fibroblasts, 72 h incubation, 0.1–200 µM range, read-out: Cytotoxicity (as of %Control) IC50 value PDL fibroblasts
Description: (§1) The cancer cell lines were cultured in DMEM supplemented with 10% FBS (Bio Whittaker, Verviers, Belgium), HEPES Buffer (10 mM), gentamicin (50 µg/mL), L-glutamine (100 μg/mL), streptomycin ([…]), penicillin (100 µg/mL), and 4-(2-hydroxyethyl)-1-piperazineethanesulfonic acid (HEPES) Buffer (Sigma, St. Luis, MO, USA). The Sulforhodamine B used was obtained from Santa Cruz Biotechnology, Inc. in Texas, USA. […] Periodontal ligament fibroblasts (PDL) were utilized to assess specific cytotoxicity. Cancer cell lines that have survived offer several benefits. They provide a consistent and uninterrupted source of cells, so bypassing any ethical concerns related to the use of human tissue. Additionally, they are cost-effective. The cytotoxicity levels were assessed using the Sulforhodamine B (SRB) colorimetric assay, provided by Santa Cruz Biotechnology, Inc. in Texas, USA. The Spectro Scan 80D UV-VIS spectrophotometer, manufactured by Sedico Ltd. in Nicosia, Cyprus, was employed for this cytotoxicity screening. The cells were co-incubated with substances or a reference agent at various doses ranging from 5 to 200 μg/mL. […] The reduction in cell viability was analyzed by plotting Dose-response curves and expressing the data as a percentage of the control optical density. The IC50 values were obtained using regression analysis.

[2] = test system: CACO2 colorectal cancer cell line; experiment: SRB cytotoxicity assay, CACO2; type: cell-based; conditions: Homo sapiens, Caco-2, 72 h incubation, n = 12, read-out: Cytotoxicity (as of %Control) IC50 value CACO2
Description: as §1

[3] = test system: T47D breast cancer cell line; experiment: SRB cytotoxicity assay, T47D; type: cell-based; conditions: Homo sapiens, 72 h incubation, n = 12, read-out: Cytotoxicity (as of %Control) IC50 value T47D mammary malignancy
Description: as §1

[4] = test system: HCT116 colorectal cancer cell line; experiment: SRB cytotoxicity assay, HCT116; type: cell-based; conditions: Homo sapiens, HCT-116, 72 h incubation, n = 12, read-out: Cytotoxicity (as of %Control) IC50 value HCT116
Description: as §1

[5] = test system: SW620 colorectal cancer cell line; experiment: SRB cytotoxicity assay, SW620; type: cell-based; conditions: Homo sapiens, SW-620, 72 h incubation, n = 12, read-out: Cytotoxicity (as of %Control) IC50 value SW620
Description: as §1

[6] = test system: HT-29 colorectal cancer cell line; experiment: SRB cytotoxicity assay, HT29; type: cell-based; conditions: Homo sapiens, 72 h incubation, n = 12, read-out: Cytotoxicity (as of %Control) IC50 value HT29
Description: as §1

[7] = test system: Human PC3 prostate cancer cell line; experiment: SRB cytotoxicity assay, PC3; type: cell-based; conditions: 72 h incubation, n = 12, read-out: Cytotoxicity (as of %Control) IC50 value PC3 prostate malignancy
Description: as §1

[8] = test system: A549 lung cancer cell line; experiment: SRB cytotoxicity assay, A549; type: cell-based; conditions: Homo sapiens, 72 h incubation, n = 12, read-out: Cytotoxicity (as of %Control) IC50 value A549 lung malignancy
Description: as §1

[9] = biological target: T1, human recombinant Glo-I enzyme (rhGlo-I) (Homo sapiens, UniProt Q04760); experiment: Glyoxalase-I (Glo-I) enzyme inhibition assay; type: biochemical; conditions: for Maximum (descriptive statistics of enzyme inhibition): highest mean inhibition over the tested concentrations; for Maximum (descriptive statistics of enzyme inhibition) / Minimum (descriptive statistics of enzyme inhibition): in % (unit assumed); for Minimum (descriptive statistics of enzyme inhibition): lowest mean inhibition over the tested concentrations
T1 construct: N-terminal Met and 6-His tag (N); purchased R&D Systems; host or cells: E. coli
T1 sequence (Q04760 2-184 limits assumed): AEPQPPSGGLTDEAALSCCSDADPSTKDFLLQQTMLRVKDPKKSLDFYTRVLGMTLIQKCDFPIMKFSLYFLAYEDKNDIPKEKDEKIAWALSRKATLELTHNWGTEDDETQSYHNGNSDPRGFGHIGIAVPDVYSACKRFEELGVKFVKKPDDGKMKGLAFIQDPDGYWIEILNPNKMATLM
Description: Solvents and chemicals were procured from Sigma-Aldrich Co. and Acros (ThermoFisher Scientific, New Jersey, USA). […] The enzyme was obtained from R&D Systems® Corporation in the USA. Synthetic compounds were tested for their inhibitory effects on the enzyme using a 10 mM DMSO stock concentration in triplicates. The manufacturer’s protocol from R & D Systems, Inc. in Minneapolis, MN, USA was followed for the in vitro experiments. The reconstituted Glo-I enzyme (0.5 mg/mL) was thawed after being stored at −70°C in sterile deionized water. […] The monitoring was done at a wavelength of 240 nm for 200 seconds at 37°C. The substrate mixture was freshly concocted with a concentration of 100 mM glutathione and 100 mM methylglyoxal (MG) in assay buffer containing 0.5 M sodium phosphate dibasic/monobasic. It was then left undisturbed at room temperature for 15 minutes […]. The selected compounds for investigation are subsequently produced in testing concentration ranges using a 0.1 M solution of sodium phosphate dibasic/monobasic with a pH range of 7–7.2. The blank contained an assay buffer with MG substrate. The test compounds were combined with human recombinant Glo-I (50 µM) in a 96-well plate to determine their kinetic behavior.

[10] = test system: A375 human skin cancer cell line; experiment: SRB cytotoxicity assay, A375; type: cell-based; conditions: A-375, 72 h incubation, n = 12, read-out: Cytotoxicity (as of %Control) IC50 value A375 skin melanoma
Description: as §1

[11] = test system: Breast cancer cell line MCF7; experiment: SRB cytotoxicity assay, MCF7; type: cell-based; conditions: Homo sapiens, 72 h incubation, n = 12, read-out: Cytotoxicity (as of %Control) IC50 value MCF7 mammary malignancy
Description: as §1

[12] = test system: HeLa uterine cervix adenocarcinoma cell line; experiment: SRB cytotoxicity assay, HeLa; type: cell-based; conditions: Homo sapiens, 72 h incubation, n = 12, read-out: Cytotoxicity (as of %Control) IC50 value Hela cervix malignancy
Description: as §1

[13] = test system: PANC1 pancreatic cell line; experiment: SRB cytotoxicity assay, PANC1; type: cell-based; conditions: Homo sapiens, PANC-1, 72 h incubation, n = 12, read-out: Cytotoxicity (as of %Control) IC50 value PANC1
Description: as §1

[14] = read-out: Trial one (%inhibtion)
[15] = read-out: Trial three (%inhibtion)
[16] = read-out: Trial two (%inhibtion)

inhibition at 3.125 µM ([9]; 3.125 µM, read-out: Trial one (%inhibtion)): 22.8%
inhibition at 3.125 µM ([9]; 3.125 µM, read-out: Trial three (%inhibtion)): 28.6%
inhibition at 3.125 µM ([9]; 3.125 µM, read-out: Trial two (%inhibtion)): 19.5%
inhibition at 6.25 µM ([9]; 6.25 µM, read-out: Trial one (%inhibtion)): 32.6%
inhibition at 6.25 µM ([9]; 6.25 µM, read-out: Trial three (%inhibtion)): 33.7%
inhibition at 6.25 µM ([9]; 6.25 µM, read-out: Trial two (%inhibtion)): 28.6%
inhibition at 12.5 µM ([9]; 12.5 µM, read-out: Trial one (%inhibtion)): 37.2%
inhibition at 12.5 µM ([9]; 12.5 µM, read-out: Trial three (%inhibtion)): 41.8%
inhibition at 12.5 µM ([9]; 12.5 µM, read-out: Trial two (%inhibtion)): 35.4%
inhibition at 25 µM ([9]; 25 µM, read-out: Trial one (%inhibtion)): 42.7%
inhibition at 25 µM ([9]; 25 µM, read-out: Trial three (%inhibtion)): 43.6%
inhibition at 25 µM ([9]; 25 µM, read-out: Trial two (%inhibtion)): 46.6%
inhibition at 50 µM ([9]; 50 µM, read-out: Trial one (%inhibtion)): 55.5%
inhibition at 50 µM ([9]; 50 µM, read-out: Trial three (%inhibtion)): 55.3%
inhibition at 50 µM ([9]; 50 µM, read-out: Trial two (%inhibtion)): 59.9%
Maximum (descriptive statistics of enzyme inhibition) [9]: 56.90
IC50 ([9]; human recombinant Glo-I, triplicates, read-out: IC50 µM ± SD): 33.4 ± 12.6 µM
Minimum (descriptive statistics of enzyme inhibition) [9]: 23.66
Compound: O=C1c2ccc(O)c(O)c2C(=O)c2c(O)ccc(O)c21 [Quinalizarin]
IC50 at 72 h [1]: > 200 µM
IC50 [2]: 109 ± 9.26 µM
IC50 [3]: 37.7 ± 4.78 µM
IC50 [4]: 72.2 ± 5.7 µM
IC50 [5]: 40.7 ± 2.21 µM
IC50 [6]: 144 ± 15.6 µM
IC50 [7]: 143.1 ± 0.18 µM
IC50 [8]: 7.9 ± 0.71 µM
IC50 [10]: 48.6 ± 1.8 µM
IC50 [11]: 33.2 ± 0.78 µM
IC50 [12]: 85.51 ± 0.44 µM
IC50 [13]: 127 ± 2.52 µM

Compound: CC(C)=CC[C@@H](O)C1=CC(=O)c2c(O)ccc(O)c2C1=O [Shikonin]
IC50 at 72 h [1]: > 200 µM
IC50 [2]: 43.8 ± 4.97 µM
IC50 [3]: 30.9 ± 3.66 µM
IC50 [4]: 108 ± 2.6 µM
IC50 [5]: 60.3 ± 2.07 µM
IC50 [6]: 142.3 ± 0.76 µM
IC50 [7]: 176.2 ± 1.25 µM
IC50 [8]: 54 ± 5.8 µM
IC50 [9]: 8.1 µM
Maximum (descriptive statistics of enzyme inhibition) [9]: 100.7
Minimum (descriptive statistics of enzyme inhibition) [9]: 23.58
inhibition at 3.125 µM [9, 14]: 16.9%
inhibition at 6.25 µM [9, 14]: 34.8%
inhibition at 12.5 µM [9, 14]: 59.4%
inhibition at 25 µM [9, 14]: 72.5%
inhibition at 50 µM [9, 14]: 104%
inhibition at 3.125 µM [9, 15]: 30%
inhibition at 6.25 µM [9, 15]: 51.3%
inhibition at 12.5 µM [9, 15]: 61%
inhibition at 25 µM [9, 15]: 73.9%
inhibition at 50 µM [9, 15]: 101%
inhibition at 3.125 µM [9, 16]: 23.8%
inhibition at 6.25 µM [9, 16]: 45.8%
inhibition at 12.5 µM [9, 16]: 65.1%
inhibition at 25 µM [9, 16]: 74.2%
inhibition at 50 µM [9, 16]: 96.9%
IC50 [10]: 56.5 ± 6.9 µM
IC50 [11]: 37.8 ± 3.89 µM
IC50 [12]: 13.9 ± 1.91 µM
IC50 [13]: 80 ± 2.11 µM
